From patent US20260262643A1, “HERBICIDAL BENZOXAZINES” (FMC CORPORATION, priority 2022, published 2026)
Read-outs that look alike come from different tables or passages of the source.

Assays:
corn = experiment: Test A preemergence; type: in vivo, Zea mays; settings: Zea mays, pre-emergence, 240 h; for Corn plant response rating (crop injury, 0 = no effect, 100 = complete kill) at 125 g/ha: 125 g ai/ha; for Corn plant response rating (crop injury, 0 = no effect, 100 = complete kill) at 500 g/ha: 500 g ai/ha
In short: (§1)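 Plants were grown in loam and sand and treated preemergence or postemergence (one- to two-leaf stage, 2–10 cm) with compound in solvent plus surfactant. Response was scored against untreated controls after 10 greenhouse days, where 0 means no effect and 100 complete control.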

foxtail, giant = experiment: Test A preemergence; type: in vivo, Setaria faberi; settings: Setaria faberi, pre-emergence, 240 h, read-out: Plant response rating, Foxtail, Giant; for pest or weed control at 125 g/ha: 125 g ai/ha; for pest or weed control at 500 g/ha: 500 g ai/ha
In short: as §1

goosegrass = experiment: Test A preemergence; type: in vivo, Eleusine indica; settings: Eleusine indica, pre-emergence, 240 h, read-out: Plant response rating, Goosegrass; for pest or weed control at 125 g/ha: 125 g ai/ha; for pest or weed control at 500 g/ha: 500 g ai/ha
In short: as §1

kochia [1] = experiment: Test A preemergence; type: in vivo, Bassia scoparia; settings: Bassia scoparia, pre-emergence, 240 h, read-out: Plant response rating, Kochia; for pest or weed control at 125 g/ha: 125 g ai/ha; for pest or weed control at 500 g/ha: 500 g ai/ha
In short: as §1

oat, wild = experiment: Test A preemergence; type: in vivo, Avena fatua; settings: Avena fatua, pre-emergence, 240 h, read-out: Plant response rating, Oat, Wild; for pest or weed control at 125 g/ha: 125 g ai/ha; for pest or weed control at 500 g/ha: 500 g ai/ha
In short: as §1

wheat = experiment: Test A preemergence; type: in vivo, Triticum aestivum; settings: Triticum aestivum, pre-emergence, 240 h, read-out: Plant response rating, Wheat; for plant injury at 125 g/ha: 125 g ai/ha; for plant injury at 500 g/ha: 500 g ai/ha
In short: as §1

kochia [2] = experiment: Test A postemergence; type: in vivo, Bassia scoparia; settings: Bassia scoparia, post-emergence, 240 h, postemergence, 10 days, 0 to 100 scale (0 no effect, 100 complete control); for pest or weed control at 125 g/ha: 125 g ai/ha, read-out: Kochia plant response rating; for pest or weed control at 500 g/ha: 500 g ai/ha, visual injury, read-out: Plant response rating, Kochia
In short: as §1

ryegrass, Italian = experiment: Test A postemergence; type: in vivo, Lolium multiflorum; settings: Lolium multiflorum, post-emergence, 240 h, postemergence, 10 days, 0 to 100 scale (0 no effect, 100 complete control); for pest or weed control at 125 g/ha: 125 g ai/ha, read-out: Ryegrass, Italian plant response rating; for pest or weed control at 500 g/ha: 500 g ai/ha, visual injury, read-out: Plant response rating, Ryegrass, Italian
In short: as §1

soybean = experiment: Test A postemergence; type: in vivo, Glycine max; settings: Glycine max, post-emergence, 240 h, postemergence, 10 days, 0 to 100 scale (0 no effect, 100 complete control); for plant injury at 125 g/ha: 125 g ai/ha, read-out: Soybean plant response rating; for plant injury at 500 g/ha: 500 g ai/ha, visual injury, read-out: Plant response rating, Soybean
In short: as §1

galium = experiment: Test A postemergence; type: in vivo, Galium aparine; settings: Galium, post-emergence, 240 h, postemergence, 10 days, 0 to 100 scale (0 no effect, 100 complete control); for pest or weed control at 125 g/ha: 125 g ai/ha, read-out: Galium plant response rating; for pest or weed control at 500 g/ha: 500 g ai/ha, visual injury, read-out: Plant response rating, Galium
In short: as §1

horseweed = experiment: Test A postemergence; type: in vivo, Erigeron canadensis; settings: Erigeron canadensis, post-emergence, 240 h, postemergence, 10 days, 0 to 100 scale (0 no effect, 100 complete control); for pest or weed control at 125 g/ha: 125 g ai/ha, read-out: Horseweed plant response rating; for pest or weed control at 500 g/ha: 500 g ai/ha, visual injury, read-out: Plant response rating, Horseweed
In short: as §1

barnyardgrass = experiment: Test B flooded paddy test; type: in vivo, Echinochloa crus-galli; settings: Echinochloa crus-galli, 312 h, 250 g ai/ha, Flood, 13 days, 0 to 100 scale (0 no effect, 100 complete control); read-out: Plant response rating, Barnyardgrass
In short: (§2)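 Species grown to 2-leaf stage; pots flooded 3 cm above soil and compound applied directly to paddy water, depth maintained throughout. After 13 days in greenhouse, plants visually rated against controls on 0–100 scale (0 no effect, 100 complete control); dash means no result.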

rice = experiment: Test B flooded paddy test; type: in vivo, Oryza sativa; settings: Oryza sativa, 312 h; 250 g ai/ha, Flood, 13 days, 0 to 100 scale (0 no effect, 100 complete control); read-out: Plant response rating, Rice
In short: as §2

sedge, umbrella = experiment: Test B flooded paddy test; type: in vivo, Cyperus difformis; settings: Cyperus difformis, 312 h; 250 g ai/ha, Flood, 13 days, 0 to 100 scale (0 no effect, 100 complete control); read-out: Plant response rating, Sedge, Umbrella
In short: as §2

[3] = visual injury after 10 days, 0 to 100 scale, 0 is no effect, 100 is complete control
[4] = 0 to 100 scale (0 no effect, 100 complete control), 10 days

SMILES | Corn plant response rating (crop injury, 0 = no effect, 100 = complete kill) at 125 g/ha (corn; [3]) [%] | Corn plant response rating (crop injury, 0 = no effect, 100 = complete kill) at 500 g/ha (corn; [3]) [%] | pest or weed control at 125 g/ha (foxtail, giant; [3]) [%] | pest or weed control at 125 g/ha (goosegrass; [3]) [%] | pest or weed control at 125 g/ha (kochia [1]; [3]) [%] | pest or weed control at 125 g/ha (oat, wild; [3]) [%] | plant injury at 125 g/ha (wheat; [3]) [%] | pest or weed control at 125 g/ha (kochia [2]) [%] | pest or weed control at 500 g/ha (kochia [2]) [%] | pest or weed control at 125 g/ha (ryegrass, Italian) [%] | pest or weed control at 500 g/ha (ryegrass, Italian) [%] | plant injury at 125 g/ha (soybean) [%] | plant injury at 500 g/ha (soybean) [%] | pest or weed control at 125 g/ha (galium) [%] | pest or weed control at 500 g/ha (galium) [%] | pest or weed control at 125 g/ha (horseweed) [%] | pest or weed control at 500 g/ha (horseweed) [%] | pest or weed control at 250 g/ha (barnyardgrass) [%] | plant injury at 250 g/ha (rice) [%] | pest or weed control at 250 g/ha (sedge, umbrella) [%] | other results
C[C@H]1CN(C(=O)c2cccc(-c3cnn(C)n3)c2)c2cccc(Cl)c2O1 [Compound 127, [(2S)-8-Chloro-2,3-dihydro-2-methyl-4H-1,4-benzoxazin-4-yl][3-(2-methyl-2H-1,2,3-triazol-4-yl)phenyl]methanone] | 0 | 0 | 90 | 60 | 0 | 0 | 0 | 60 | 90 | 10 | 50 | 100 | 100 | 60 | 100 | 0 | 0 | 0 | 0 | 0 | pest or weed control at 500 g/ha (foxtail, giant; [3]): 100%; pest or weed control at 500 g/ha (goosegrass; [3]): 100%; pest or weed control at 500 g/ha (kochia [1]; [3]): 60%; pest or weed control at 500 g/ha (oat, wild; [3]): 20%; plant injury at 500 g/ha (wheat; [3]): 0%
Cc1cccc2c1O[C@@H](C)CN2C(=O)c1cccc(-n2cn[nH]c2=O)c1 [Compound 122, 4-[3-[[(2S)-2,3-Dihydro-2,8-dimethyl-4H-1,4-benzoxazin-4-yl]carbonyl]phenyl]-2,4-dihydro-3H-1,2,4-triazol-3-one] | 0 | 10 | 20 | 0 | 0 | 0 | 0 | 30 | 50 | 0 | 30 | 50 | 90 | 50 | 50 | 0 | 0 | 0 | 0 | 0 | pest or weed control at 500 g/ha (foxtail, giant; [3]): 90%; pest or weed control at 500 g/ha (goosegrass; [3]): 90%; pest or weed control at 500 g/ha (kochia [1]; [3]): 10%; pest or weed control at 500 g/ha (oat, wild; [3]): 20%; plant injury at 500 g/ha (wheat; [3]): 0%
CCc1ccc(-n2cnc(C(C)C)n2)cc1C(=O)N1C[C@H](C)Oc2c(Cl)cccc21 [Compound 94, [(2S)-8-Chloro-2,3-dihydro-2-methyl-4H-1,4-benzoxazin-4-yl][2-ethyl-5-[3-(1-methylethyl)-1H-1,2,4-triazol-1-yl]phenyl]methanone] | 60 | – | 100 | 100 | 90 | 40 | 50 | 100 | 100 | 50 | 90 | 100 | 100 | 100 | 100 | 0 | 50 | 30 | 0 | 98 | Corn plant response rating (crop injury, 0 = no effect, 100 = complete kill) at 500 g/ha (corn; [4]): 90%; pest or weed control at 500 g/ha (foxtail, giant; [4]): 100%; pest or weed control at 500 g/ha (goosegrass; [4]): 100%; pest or weed control at 500 g/ha (kochia [1]; [4]): 100%; pest or weed control at 500 g/ha (oat, wild; [4]): 90%; plant injury at 500 g/ha (wheat; [4]): 90%
